Consider twelve molecules from patent publication US5380834A, “Immuno-suppressive agent” (Ishihara Sangyo Kaisha Ltd., priority 1992, dated 1995).

In brackets after ≈: the same amount, converted by molar mass.

One may read the IC50 as the point on the concentration scale where inhibition reaches its midpoint.

Test [1] deals with IgGl antibody production from murine spleen B cells. In words: Effects on the IgGl antibody production from murine spleen cells (LPS + IL4). It is filed as cell-based, BALB/c mouse. The conditions noted are these: Mus musculus, B-cell, 168 h; spleen B cells, LPS 10 μg/ml, IL4 100 U/ml, 7 days, enzyme-immunoassay; read-out: IC50 value, IgGl antibody production. The procedure: (§1) Using murine spleen B cells, the effects of the compound of the formula (I) on the IgGl, IgM and IgE antibody production induced by the stimulation by LPS (lipopolysaccharide; Product No. 520.02051, manufactured by Wako Junyaku) and IL4 (interleukin 4), were studied. Namely, spleen cells of a BALB/c mouse were treated with a murine anti-Thy-1 antibody (obtained from Chiba University) and a rabbit complement (Product No. 3051, manufactured by cedarlane) to remove T cells, and 3×10^5 spleen B cells were cultured for 7 days together with 10 μg/ml of LPS, 100 U/ml of mouse-recombinant IL4 (Product No. MIL-4C, manufactured by Genzyme) and each concentration (from […]) of the compound of the formula (I) on a microplate with 96 wells by a 10% FCS-RPMI solution (in an incubator, 5% CO2, at 37° C.).
(§2) For the basic procedure of this test, reference was made to The Journal of Immunology, Vol. 136, p. 4538, (1986).
(§3) The amount of each antibody in the cell culture supernatant hereby obtained, was measured by the following enzyme-immunoassay. Firstly, on a microplate with 96 wells, 1 μg/ml of a rabbit anti-mouse IgGl antibody (Product No. 36243, manufactured by Cappel), 1 μg/ml of a goat anti-mouse IgM antibody (Product No. 0611-0201, manufactured by Cappel) or 10 μg/ml of a rat anti-mouse IgE monoclonal antibody (Product No. LO-ME-2, manufactured by Experimental Immunology) was coated (50 μl/well, at room temperature for 60 minutes), and then a nonspecific bond was blocked by a 0.1% bovine serum albumin-containing 10 mM sodium phosphate buffer (pH 7.2) (at room temperature for 60 minutes). Then, the above-mentioned cell culture supernatant or its diluted solution was added in an amount of 50 μl/well and reacted at room temperature for 60 minutes. Further, an alkaline phosphatase-labeled rabbit anti-mouse IgGl antibody (Product No. 61-0122, manufactured by Zymet) diluted 1,000 times, an alkaline phosphatase-labeled rabbit anti-mouse IgM antibody (Product No. 61-6822, manufactured by Zymet) diluted 2,000 times, or an alkaline phosphatase-labeled goat anti-mouse IgE antibody (Product No. PA-284, manufactured by Binding Site) diluted 500 times was added in an amount of 50 μl/well and reacted at room temperature for 60 minutes. 100 μl/well of a 10% diethanol amine buffer solution (pH 9.8) containing p-nitrophenyl phosphate as an enzyme substrate, was reacted, and the absorbance at 405 nm was measured. The amount of each antibody was calculated from the calibration curve of each standard antibody, and the IC50 value of the compound of the formula (I) on the antibody production was calculated using as the control value a value obtained in the absence of the compound of the formula (I).

The test system of test [2] is IgE antibody production from murine spleen B cells. Kind of test: Effects on the IgE antibody production from murine spleen cells (LPS + IL4). It is filed as cell-based, BALB/c mouse. To be noted: Mus musculus, B-cell, 168 h; spleen B cells, LPS 10 μg/ml, IL4 100 U/ml, 7 days, enzyme-immunoassay; read-out: IC50 value, IgE antibody production. As for the experimental part: as §1, §2, §3

In test [3] the test system is murine mixed lymphocyte reaction (spleen cells of BALB/c and C57BL/6 mice). In words: Effects on the murine mixed lymphocyte reaction (3H-TdR uptake). It is filed as cell-based. To be noted: Mus musculus, BALB/c + C57BL/6 spleen cells, 48 hours, read-out: IC50 value, b (murine mixed lymphocyte reaction). The procedure:
Using spleen cells of BALB/c and C57BL/6 mice, the effect of the compound of the formula (I) on the murine mixed lymphocyte reaction in both sides, was studied. Namely, spleen cells of both types of mice were mixed in an equal amount of 5×10^5 cells each, and the mixed cells were cultured together with the compound of the formula (I) for 48 hours on a microplate with 96 wells by a 10% FCS-RPMI solution (in an incubator, 5% CO2, at 37° C.). Then, 0.5 μCi of ^3 H-TdR was added thereto, and the mixture was further cultured for from 16 to 18 hours. Then, cells were collected by a cell harvester, and the radioactivity (dpm) of ^3 H-TdR uptaken into the cells, was measured. Such measured amounts of ^3 H-TdR uptaken into the cells were used as indices for the mixed lymphocyte reaction, and the radioactivity at each concentration (from 0.001 to 1,000 μg/ml) of the compound of the formula (I) was compared with the non-treated control value, to calculate the Ic50 value.
For the basic procedure for this test, reference was made to Selected methods in cellular immunology, p. 147-149 (translated by Katsuyuki Imai et al., published by Rikogakusha, (1982)).

For a further test, the system named is murine bone mallow cells. Kind of test: Effects on the murine bone mallow cells (proliferation, 3H-TdR uptake). The conditions noted are these: Mus musculus, bone marrow cells; 20% L929 culture supernatant, 48 hours, 3H-TdR uptake; Tables 12-15; read-out: IC50 value, c (murine bone mallow cells). It is filed as cell-based, BALB/c mouse. The procedure:
Bone mallow cells were removed from the femur of a BALB/c mouse and suspended in a 10% FCS-RPMI solution. The cell suspension was put into a plastic Petri dish having a diameter of 10 cm and left to stand still (in an incubator, 5% CO2, at 37° C.). Two hours later, only floating cells were recovered, and adhesion cells were removed. 1×10^5 floating cells were cultured for 48 hours together with a 20% culture supernatant of L929 fibroblastoma and the compound of the formula (I) on a microplate with 96 wells by a 10% FCS-RPMI solution (in an incubator, 5% CO2, at 37° C.). Then, 0.5 μCi of ^3 H-TdR was added thereto, and the mixture was further cultured for 4 hours. Then, cells were collected by a cell harvester, and the radioactivity (dpm) of ^3 H-TdR uptaken into the cells, was measured. Such measured amounts of ^3 H-TdR uptaken into the cells were used as indices for the proliferation of bone mallow cells, and the radioactivity at each concentration (from 0.001 to 1,000 μg/ml) of the compound of the formula (I) was compared with the control value where the L929 culture supernatant was added alone, to calculate the IC50 value. In these Tables 12 and 13, the results of the bone mallow cells are shown by (c).
For the basic procedure of this test, reference was made to Seikagakujikken Koza compiled by Japan Biochemistry Association, Vol. 5, p. 266-270 (published by Tokyo Kagaku Dojin in 1986).

For another test, the system named is murine thymocytes. In words: Effects on the mitogenic response by murine thymocytes (Con A stimulation, 3H-TdR uptake). It is filed as cell-based, BALB/c murine. The conditions noted are these: Mus musculus, Thymocyte; BALB/c thymocytes, Con A 5 μg/ml, 48 hours, 3H-TdR uptake; read-out: IC50 value, a (mitogenic response of murine thymocytes). The procedure:
Using BALB/c murine thymocytes, the effect of the compound of the formula (I) on the mitogenic response of lymphocytes to the stimulation by concanavalin A (hereinafter referred to simply as Con A, Product No. L-1000, manufactured by Vector Laboratories) was studied. Namely, 4×10^5 murine thymocytes were cultured for 48 hours on a microplate with 96 wells in a RPMI1640 solution containing 10% of a fetal bovine serum (hereinafter referred to simply as a 10% FCS-RPMI solution) together with Con A (5 μg/ml) and the compound of the formula (I) (in an incubator, 5% CO2, at 37° C.). Then, 0.5 μCi of ^3 H-thymidine (hereinafter referred to simply as ^3 H-TdR) was added thereto, and the mixture was further cultured for 4 hours. Then, cells were collected by a cell harvester, and the radioactivity (dpm) of ^3 H-TdR uptaken into cells was measured. Such measured amounts of ^3 H-TdR uptaken into the cells were used as indices of the mitogenic response of the murine thymocytes, and the radioactivity at each concentration (from 0.001 to 1,000 μg/ml) of the compound of the formula (I) was compared with the control value treated solely by Con A, to calculate IC50 value. In these Tables 12 and 13, the results of murine thymocytes are shown by (a).
For the basic procedure of this test, reference was made to Selected methods in cellular immunology, p. 144-146 (translated by Katsuyuki Imai et al., published by Rikogakusha, (1982)).

Test [4] deals with IgM antibody production from murine spleen B cells. Kind of test: Effects on the IgM antibody production from murine spleen cells (LPS + IL4). It is filed as cell-based, BALB/c mouse. The conditions noted are these: Mus musculus, B-cell, 168 h; spleen B cells, LPS 10 μg/ml, IL4 100 U/ml, 7 days, enzyme-immunoassay; read-out: IC50 value, IgM antibody production. The procedure: as §1, §2, §3

As for `O=C(CCCCCCCCCCCCCCCO)O[C@H]1C=C[C@H]2CO[C@@H]1O2` [Compound 49, 1,6-anhydro-3,4-dideoxy-2-O-(16-hydroxy)hexadecanoyl-β-D-threo-hex-3-enopyranose], the half-inhibitory concentration (IC50) was below 0.1 µg/mL in test [1]; below 0.1 µg/mL in test [2]; 32 µg/mL in test [3]; 41 µg/mL (≈ 107 µM) with murine bone mallow cells; 11 µg/mL (≈ 28.8 µM) in the test on murine thymocytes; 0.43 µg/mL in test [4].

With `O[C@@H]1C=C[C@H]2CO[C@@H]1O2` [Compound 103, 1,6-anhydro-3,4-dideoxy-β-D-erythro-hex-3-enopyranose], the IC50 in test [1] is 0.45 µg/mL; in test [2], 2.1 µg/mL; in test [3], above 1000 µg/mL; with murine bone mallow cells, above 1000 µg/mL; in the test on murine thymocytes, 780 µg/mL (≈ 6090 µM); in test [4] it was 1.3 µg/mL.

Turning to `O=C(O[C@H]1C=C[C@H]2CO[C@@H]1O2)c1ccccc1` [Compound 5], the IC50 in test [1] is 300 µg/mL; in test [2], 71 µg/mL; in test [3] it was 130 µg/mL; in the test on murine bone mallow cells, 150 µg/mL (≈ 646 µM); in the test with murine thymocytes, 130 µg/mL (≈ 560 µM); in test [4] it was 170 µg/mL.

Turning to `O=C(O[C@H]1C=C[C@H]2CO[C@@H]1O2)c1cccs1` [Compound 14], the IC50 worked out at 10 µg/mL in test [1]; 3.7 µg/mL in test [2]; 13 µg/mL in test [3]; 500 µg/mL (≈ 2100 µM) with murine bone mallow cells; 42 µg/mL (≈ 176 µM) with murine thymocytes; 0.89 µg/mL in test [4].

As for `Cc1ccc(S(=O)(=O)O[C@H]2C=C[C@H]3CO[C@@H]2O3)cc1` [Compound 46, 1,6-anhydro-3,4-dideoxy-2-O-(p-toluene)sulfonyl-β-D-threo-hex-3-enopyranose], the IC50 in test [1] was 0.25 µg/mL; in test [2], 0.32 µg/mL; in test [3], 22 µg/mL; with murine bone mallow cells it was 190 µg/mL (≈ 673 µM); in the test on murine thymocytes it was 110 µg/mL (≈ 390 µM); in test [4] it was 0.35 µg/mL.

Regarding `O=C(CCCCCBr)O[C@H]1C=C[C@H]2CO[C@@H]1O2` [Compound 13], the IC50 in test [1] is below 0.001 µg/mL; in test [2], 0.32 µg/mL; in test [3], 190 µg/mL; in the test with murine bone mallow cells it was 330 µg/mL (≈ 1080 µM); in the test with murine thymocytes, 33 µg/mL (≈ 108 µM); in test [4], below 0.001 µg/mL.

For the molecule `O=C(Nc1ccccc1)O[C@H]1C=C[C@H]2CO[C@@H]1O2` [Compound 23, 1,6-anhydro-3,4-dideoxy-2-O-phenylcarbamoyl-β-D-threo-hex-3-enopyranose], the IC50 worked out at 72 µg/mL in test [1]; 43 µg/mL in test [2]; 170 µg/mL in test [3]; 49 µg/mL (≈ 198 µM) in the test on murine bone mallow cells; 95 µg/mL (≈ 384 µM) in the test on murine thymocytes; 69 µg/mL in test [4].

Take `O=C(O[C@H]1C=C[C@H]2CO[C@@H]1O2)c1cccnc1` [Compound 15]: the IC50 in test [1] was determined as 220 µg/mL; in test [2] it was 320 µg/mL; in test [3] it was 480 µg/mL; in the test with murine bone mallow cells, 310 µg/mL (≈ 1330 µM); with murine thymocytes, 130 µg/mL (≈ 557 µM); in test [4], 78 µg/mL.

For `CNC(=S)O[C@H]1C=C[C@H]2CO[C@@H]1O2` [Compound 24, 1,6-anhydro-3,4-dideoxy-2-O-methylthiocarbamoyl-β-D-threo-hex-3-enopyranose], the IC50 came out at 17 µg/mL in test [1]; 0.22 µg/mL in test [2]; 100 µg/mL in test [3]; 620 µg/mL (≈ 3080 µM) with murine bone mallow cells; 170 µg/mL (≈ 845 µM) with murine thymocytes; 10 µg/mL in test [4].

Take `CCCC#C[C@]1(O)C=C[C@H]2CO[C@@H]1O2` [Compound 31]: the IC50 worked out at 1.5 µg/mL in test [1]; 140 µg/mL in test [2]; 560 µg/mL in test [3]; 520 µg/mL (≈ 2680 µM) in the test on murine bone mallow cells; 180 µg/mL (≈ 927 µM) with murine thymocytes; 10 µg/mL in test [4].

For the molecule `CC(C)(C)NC(=O)O[C@H]1C=C[C@H]2CO[C@@H]1O2` [Compound 25], the IC50 in test [1] was determined as 0.0015 µg/mL; in test [2], 0.0034 µg/mL; in test [3], 430 µg/mL; in the test with murine bone mallow cells it was 340 µg/mL (≈ 1500 µM); in the test with murine thymocytes, 0.32 µg/mL (≈ 1.41 µM); in test [4] it was 78 µg/mL.

Consider `CCCCCCCCCCCCCCCC(=O)O[C@H]1C=C[C@H]2CO[C@@H]1O2` [Compound 7], for which the IC50 came to 330 µg/mL in test [1]; 180 µg/mL in test [2]; 76 µg/mL in test [3]; 89 µg/mL (≈ 243 µM) in the test with murine bone mallow cells; 49 µg/mL (≈ 134 µM) in the test with murine thymocytes; 410 µg/mL in test [4].
